Measured values as given in the supplement of paper PMC4380931.

Columns and labels:
WM1552C [1] = experiment: apoptotic fraction of cells (caspase-3 NucView488 positive); higher = more apoptosis
Method: (§1)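 BRAF V600E/D melanoma cell lines were seeded in 96-well plates, treated in 4 replicates with seven doses (3.16 nM to 3.16 uM) of RAF/MEK inhibitors for 24, 48 or 72 h, and stained with Hoechst 33342 (nuclei) and DEVD-NucView488 caspase-3 substrate. Plates were imaged on an Operetta. Relative viability is the cell count normalised to a DMSO-treated control; apoptosis fraction is the fraction of NucView488-positive nuclei.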

WM115 = experiment: as above
Method: as §1

MZ7MEL = experiment: as above
Method: as §1

SKMEL28 = experiment: as above
Method: as §1

MMACSF = experiment: as above
Method: as §1

WM1552C [2] = experiment: relative viability (cell count relative to DMSO-treated control) (fraction of DMSO control); higher = more viable cells / less drug effect
Method: as §1

C32 = experiment: as above
Method: as §1

CN(C)CCOc1ccc(-c2nc(-c3ccncc3)c(-c3ccc4c(c3)CC/C4=N\O)[nH]2)cc1
Settings | apoptotic fraction of cells, MMACSF | apoptotic fraction of cells, MZ7MEL | apoptotic fraction of cells, SKMEL28 | apoptotic fraction of cells, WM115 | apoptotic fraction of cells, WM1552C [1] | relative viability, C32 | relative viability, WM1552C [2]
24 h, 0.00316 µM | 0.0448 | 0.0126 | – | 0.0434 | 0.059 | 1.07 | 0.999
24 h, 0.01 µM | 0.0421 | 0.0117 | – | 0.0337 | 0.05804 | 1.05 | 1.036
24 h, 0.0316 µM | 0.0446 | 0.0102 | – | 0.0512 | 0.0561 | 1.09 | 0.986
24 h, 0.1 µM | 0.0491 | 0.0118 | – | 0.0473 | 0.0693 | 1.05 | 1.08
24 h, 0.316 µM | 0.0475 | 0.0151 | – | 0.0461 | 0.0643 | 0.971 | 1.03
24 h, 1 µM | 0.048 | 0.0236 | – | 0.0874 | 0.0626 | 0.842 | 1.088
24 h, 3.16 µM | 0.0414 | 0.0357 | – | 0.0958 | 0.0608 | 0.779 | 1.05
48 h, 0.00316 µM | 0.0482 | 0.0138 | 0.0386 | 0.047 | 0.075 | 1.2 | 1.01
48 h, 0.01 µM | 0.0408 | 0.019 | 0.034 | 0.0376 | 0.0725 | 1.04 | 1.01
48 h, 0.0316 µM | 0.041 | 0.0145 | 0.0305 | 0.0402 | 0.0713 | 1.03 | 0.994
48 h, 0.1 µM | 0.0486 | 0.0141 | 0.0338 | 0.0491 | 0.067 | 1.06 | 0.994
48 h, 0.316 µM | 0.0567 | 0.0253 | 0.042 | 0.0688 | 0.0576 | 0.858 | 0.954
48 h, 1 µM | 0.0889 | 0.0408 | 0.0432 | 0.101 | 0.0631 | 0.551 | 0.87
48 h, 3.16 µM | 0.0951 | 0.0727 | 0.0466 | 0.131 | 0.0655 | 0.4 | 0.82
72 h, 0.00316 µM | 0.0417 | 0.017 | 0.0377 | 0.0298 | 0.0862 | 1.1 | 1.03
72 h, 0.01 µM | 0.0427 | 0.0127 | 0.0332 | 0.031 | 0.0741 | 1.19 | 1.16
72 h, 0.0316 µM | 0.0345 | 0.0173 | 0.0271 | 0.0346 | 0.0679 | 1.08 | 1.15
72 h, 0.1 µM | 0.0358 | 0.0271 | 0.0305 | 0.0452 | 0.0654 | 0.762 | 1.03
72 h, 0.316 µM | 0.0666 | 0.0568 | 0.0316 | 0.0689 | 0.0685 | 0.436 | 0.899
72 h, 1 µM | 0.155 | 0.0967 | 0.0381 | 0.144 | 0.0776 | 0.276 | 0.699
72 h, 3.16 µM | 0.224 | 0.143 | 0.259 | 0.158 | 0.113 | 0.209 | 0.616
